From patent publication US12077503B2, “Substituted cyclic amides and their use as herbicides” (FMC CORPORATION, priority 2015, dated 2024)

Legend:
Type in all cases: in vivo
[1] = system: barnyardgrass (Echinochloa crus-galli); test: Test G Pre-Emergence Protocol; settings: Echinochloa crus-galli, pre-emergence, 312 h, evaluated after 13 days
Description: (§1) Seeds of corn (Zea mays), giant foxtail (Setaria faberi), barnyardgrass (Echinochloa crus-galli), ivy-leaved morning glory (Ipomoea hederacea), redroot pigweed (Amaranthus retroflexus) and velvetleaf (Abutilon theophrasti) were sown in standard soil in pots. After cultivation for one day under controlled conditions in a glasshouse (at 24/16° C., day/night; 14 hours light; 65% humidity), the plants were sprayed with an aqueous spray solution derived from the formulation of the technical active ingredient in acetone/water (50:50) solution containing 0.5% Tween 20 (polyoxyethylene sorbitan monolaurate, CAS RN 9005-64-5) to give a final dose of 15.625, 62.5 or 250 g/ha of test compound.
(§2) The test plants were then grown on under controlled conditions in a glasshouse (at 24/16° C., day/night; 14 hours light; 65% humidity) and watered twice daily. After 13 days the test was evaluated (100=total damage to plant; 0=no damage to plant). A dash (-) means no test result.

corn (Zea mays) [2] = test: Test G Pre-Emergence Protocol; settings: evaluated after 13 days
Description: as §1, §2

[3] = system: giant foxtail (Setaria faberi); test: Test G Pre-Emergence Protocol; settings: Setaria faberi, pre-emergence, 312 h, evaluated after 13 days
Description: as §1, §2

[4] = system: ivy-leaved morning glory (Ipomoea hederacea); test: Test G Pre-Emergence Protocol; settings: evaluated after 13 days
Description: as §1, §2

[5] = system: redroot pigweed (Amaranthus retroflexus); test: Test G Pre-Emergence Protocol; settings: evaluated after 13 days
Description: as §1, §2

[6] = system: velvetleaf (Abutilon theophrasti); test: Test G Pre-Emergence Protocol; settings: evaluated after 13 days
Description: as §1, §2

[7] = system: barnyardgrass (Echinochloa crus-galli); test: Test G Post-Emergence Protocol
Description: as §1, with “8 days” for “one day”
as §2

corn (Zea mays) [8] = test: Test G Post-Emergence Protocol
Description: as §1, with “8 days” for “one day”
as §2

[9] = system: giant foxtail (Setaria faberi); test: Test G Post-Emergence Protocol
Description: as §1, with “8 days” for “one day”
as §2

[10] = system: ivy-leaved morning glory (Ipomoea hederacea); test: Test G Post-Emergence Protocol
Description: as §1, with “8 days” for “one day”
as §2

[11] = system: redroot pigweed (Amaranthus retroflexus); test: Test G Post-Emergence Protocol
Description: as §1, with “8 days” for “one day”
as §2

[12] = system: velvetleaf (Abutilon theophrasti); test: Test G Post-Emergence Protocol
Description: as §1, with “8 days” for “one day”
as §2

[13] = 62.5 g ai/ha, 100=total damage to plant, 0=no damage to plant
[14] = 15.625 g ai/ha, evaluated after 13 days (100=total damage to plant; 0=no damage to plant)
[15] = 62.5 g ai/ha, evaluated after 13 days
[16] = 250 g ai/ha, evaluated after 13 days

Question: Which pest or weed control at 15.625 g/ha ([1]; 15.625 g ai/ha, read-out: Barnyard grass damage rating (100=total damage to plant; 0=no damage to plant)) does the source give for `CN1C[C@H](c2ccc(C(F)(F)F)cc2)[C@@H](C(=O)Nc2cccc(F)n2)C1=O` (racemic) [Compound 1428] here?
Answer: The pest or weed control at 15.625 g/ha was 50%.

Question: And the pest or weed control at 62.5 g/ha ([1]; 62.5 g ai/ha, 100=total damage to plant, 0=no damage to plant, read-out: plant damage rating, Barnyardgrass)?
Answer: The pest or weed control at 62.5 g/ha was 60%.

Question: What about the pest or weed control at 250 g/ha ([1]; 250 g ai/ha, read-out: Barnyardgrass damage rating (100=total damage to plant; 0=no damage to plant)) of the same compound?
Answer: Its pest or weed control at 250 g/ha is 80%.

Question: What about the “Corn damage rating (100=total damage to plant; 0=no damage to plant)” value (corn (Zea mays) [2]; 15.625 g ai/ha) of the same compound?
Answer: The value was 50.

Question: What about the plant injury at 62.5 g/ha (corn (Zea mays) [2]; Zea mays, pre-emergence, 312 h, 62.5 g ai/ha, 100=total damage to plant, 0=no damage to plant, read-out: plant damage rating, Corn) of the same compound?
Answer: The plant injury at 62.5 g/ha was 20%.

Question: And the plant injury at 250 g/ha (corn (Zea mays) [2]; Zea mays, pre-emergence, 312 h, 250 g ai/ha, read-out: Corn damage rating (100=total damage to plant; 0=no damage to plant))?
Answer: The plant injury at 250 g/ha was 70%.

Question: What about the pest or weed control at 15.625 g/ha ([3]; 15.625 g ai/ha, read-out: Foxtail, Giant damage rating (100=total damage to plant; 0=no damage to plant)) of the same compound?
Answer: Its pest or weed control at 15.625 g/ha is 70%.

Question: And the pest or weed control at 62.5 g/ha ([3]; 62.5 g ai/ha, 100=total damage to plant, 0=no damage to plant, read-out: plant damage rating, Foxtail, Giant)?
Answer: The pest or weed control at 62.5 g/ha was 80%.

Question: And the pest or weed control at 250 g/ha ([3]; 250 g ai/ha, read-out: Foxtail, Giant damage rating (100=total damage to plant; 0=no damage to plant))?
Answer: The pest or weed control at 250 g/ha was 80%.

Question: What about the “Morning-glory, Ivy-leaved damage rating (100=total damage to plant; 0=no damage to plant)” value ([4]; 15.625 g ai/ha) of the same compound?
Answer: Its value is 10.

Question: And the “plant damage rating, Morningglory, Ivy-leaved” value [4, 13]?
Answer: The value was 10.

Question: And the pest or weed control at 250 g/ha ([4]; Ipomoea, pre-emergence, 312 h, 250 g ai/ha, read-out: Morningglory, Ivy-leaved damage rating (100=total damage to plant; 0=no damage to plant))?
Answer: Its pest or weed control at 250 g/ha is 40%.

Question: What about the “Pigweed, Redroot damage rating (100=total damage to plant; 0=no damage to plant)” value ([5]; 15.625 g ai/ha) of the same compound?
Answer: The value was 0.

Question: What about the “plant damage rating, Pigweed, Redroot” value [5, 13] of the same compound?
Answer: Its value is 0.

Question: What about the pest or weed control at 250 g/ha ([5]; Amaranthus retroflexus, pre-emergence, 312 h, 250 g ai/ha, read-out: Pigweed, Redroot damage rating (100=total damage to plant; 0=no damage to plant)) of the same compound?
Answer: The pest or weed control at 250 g/ha was 80%.

Question: And the “Velvetleaf damage rating (100=total damage to plant; 0=no damage to plant)” value ([6]; 15.625 g ai/ha)?
Answer: Its value is 0.

Question: And the “plant damage rating, Velvetleaf” value [6, 13]?
Answer: The value was 0.

Question: What about the “Velvetleaf damage rating (100=total damage to plant; 0=no damage to plant)” value ([6]; 250 g ai/ha) of the same compound?
Answer: Its value is 0.

Question: What about the Barnyardgrass damage rating [7, 14] of the same compound?
Answer: The Barnyardgrass damage rating was 20.

Question: And the “Barnyardgrass damage rating (100=total damage to plant; 0=no damage to plant)” value [7, 15]?
Answer: The value was 20.

Question: And the “damage to plant, Barnyardgrass (100=total damage to plant; 0=no damage to plant)” value [7, 16]?
Answer: Its value is 40.

Question: And the “damage to plant, Corn (100=total damage to plant; 0=no damage to plant)” value (corn (Zea mays) [8]; [16])?
Answer: The value was 20.

Question: What about the plant injury at 15.625 g/ha (corn (Zea mays) [8]; Zea mays, post-emergence, 312 h, 15.625 g ai/ha, evaluated after 13 days (100=total damage to plant; 0=no damage to plant), read-out: Corn damage rating) of the same compound?
Answer: Its plant injury at 15.625 g/ha is 10%.

Question: And the plant injury at 62.5 g/ha (corn (Zea mays) [8]; Zea mays, post-emergence, 312 h, 62.5 g ai/ha, evaluated after 13 days, read-out: Corn damage rating (100=total damage to plant; 0=no damage to plant))?
Answer: The plant injury at 62.5 g/ha was 10%.

Question: And the “Foxtail, Giant damage rating” value [9, 14]?
Answer: Its value is 30.

Question: What about the pest or weed control at 62.5 g/ha ([9]; Setaria faberi, post-emergence, 312 h, 62.5 g ai/ha, evaluated after 13 days, read-out: Foxtail, Giant damage rating (100=total damage to plant; 0=no damage to plant)) of the same compound?
Answer: Its pest or weed control at 62.5 g/ha is 50%.

Question: And the pest or weed control at 250 g/ha ([9]; Setaria faberi, post-emergence, 312 h, 250 g ai/ha, evaluated after 13 days, read-out: damage to plant, Foxtail, Giant (100=total damage to plant; 0=no damage to plant))?
Answer: The pest or weed control at 250 g/ha was 60%.

Question: And the “Morningglory, Ivy-leaved damage rating” value [10, 14]?
Answer: Its value is 10.

Question: What about the “Morningglory, Ivy-leaved damage rating (100=total damage to plant; 0=no damage to plant)” value [10, 15] of the same compound?
Answer: Its value is 10.

Question: What about the “damage to plant, Morningglory, Ivy-leaved (100=total damage to plant; 0=no damage to plant)” value [10, 16] of the same compound?
Answer: The value was 20.

Question: And the “Pigweed, Redroot damage rating (100=total damage to plant; 0=no damage to plant)” value [11, 15]?
Answer: Its value is 10.

Question: What about the pest or weed control at 15.625 g/ha ([11]; Amaranthus retroflexus, post-emergence, 312 h, 15.625 g ai/ha, evaluated after 13 days (100=total damage to plant; 0=no damage to plant), read-out: Pigweed, Redroot damage rating) of the same compound?
Answer: Its pest or weed control at 15.625 g/ha is 10%.

Question: What about the pest or weed control at 250 g/ha ([11]; Amaranthus retroflexus, post-emergence, 312 h, 250 g ai/ha, evaluated after 13 days, read-out: damage to plant, Pigweed, Redroot (100=total damage to plant; 0=no damage to plant)) of the same compound?
Answer: Its pest or weed control at 250 g/ha is 40%.

Question: And the Velvetleaf damage rating [12, 14]?
Answer: The Velvetleaf damage rating was 0.

Question: What about the “Velvetleaf damage rating (100=total damage to plant; 0=no damage to plant)” value [12, 15] of the same compound?
Answer: The value was 0.

Question: What about the “damage to plant, Velvetleaf (100=total damage to plant; 0=no damage to plant)” value [12, 16] of the same compound?
Answer: The value was 0.
